One series concerns IL-1β. Kind of series: THP-1 AlphaLISA IL-1β cytokine assay (differentiated THP-1 cells). It is filed as cell-based. The note with it: LPS 24 hr then Nigericin 1 hour, read-out: IL-1β (IC50). The protocol:
(§1) Measuring Inhibitory Effects on IL-1V Cytokine and IL-6 Output from THP-1s
(§2) The cytokine inhibition profiles of compounds of formula (I) were determined in a differentiated THP-1 cell assay. All assays were performed in RPMI-1640 growth medium (Gibco), supplemented with 10% fetal bovine serum (FBS; Gibco), 1% penicillin-streptomycin and 1% sodium pyruvate unless specified otherwise. The IL-1β and IL-6 cytokine inhibition assays were run in a background of differentiated THP-1 cells as described below. All reagents described were from Sigma-Aldrich unless specified otherwise. Compounds were prepared as 10 mM DMSO stocks.
(§3) THP-1 cells were expanded as a suspension up to 80% confluence in appropriate growth medium. Cells were harvested, suspended, and treated with an appropriate concentration of phorbol 12-myristate 13-acetate (PMA) over a 72 hr period (37° C./5% CO2).
(§4) Following 72 hrs of THP-1 cell incubation, cellular medium was removed and replaced with fresh growth media containing 1% of FBS. Working concentrations of compounds were prepared separately in 10% FBS treated growth medium and pre-incubated with the cells for 30 minutes (37° C./5% CO2). Following the 30 minute compound pre-incubation, THP-1s were treated with an appropriate concentration of LPS and the THP-1s were subsequently incubated for a 24 hr period (37° C./5% CO2). An appropriate final concentration of Nigericin was then dispensed into the THP-1 plates and incubated for 1 hour (37° C./5% CO2) before THP-1 supernatants were harvested and collected in separate polypropylene 96-well holding plates.
(§5) Reagents from each of the IL-1β and IL-6 commercial kits (Perkin Elmer) were prepared and run according to the manufacturer's instructions. Subsequently, fluorescence signal detection in a microplate reader was measured (EnVision® Multilabel Reader, Perkin Elmer).
(§6) Percentage inhibition was calculated per cytokine by normalising the sample data to the high and low controls used within each plate (+/−LPS respectively).
(§7) Dimethyl itaconate and 4-octyl itaconate were included as comparator compounds.
On the technique in general: Alpha assays give light when donor and acceptor beads are brought close together.

A further series concerns IL-6. Kind of series: THP-1 AlphaLISA IL-6 cytokine assay (differentiated THP-1 cells). Format: cell-based. The following applies: Homo sapiens, THP-1, differentiated THP-1 cells, LPS 24 hr then Nigericin 1 hour; read-out: IL-6 (IC50). Here is the method:
as §1, §2, §3, §4, §5, §6, §7

Series [1] has as its system cryo-preserved hepatocytes. Kind of series: Hepatocyte stability assay, human. The following applies: human, hepatocytes. It is filed as in vitro ADME. From the text: (§8) Defrosted cryo-preserved hepatocytes (viability>70%) were used to determine the metabolic stability of a compound via calculation of intrinsic clearance (CIint; a measure of the removal of a compound from the liver in the absence of blood flow and cell binding). Clearance data are particularly important for in vitro work as they can be used in combination with in vivo data to predict the half-life and oral bioavailability of a drug.
(§9) The metabolic stability in hepatocytes assay involved a time-dependent reaction using both positive and negative controls. The cells must be pre-incubated at 37° C. then spiked with test compound (and positive control); samples taken at pre-determined time intervals were analysed to monitor the change in concentration of the initial drug compound over 60 minutes. A buffer incubation reaction (with no hepatocytes present) acted as a negative control and two cocktail solutions, containing compounds with known high and low clearance values (verapamil/7-hydroxycoumarin and propranolol/diltiazem), acted as positive controls. • 1. The assay was run with a cell concentration of 0.5×10^6 cells/mL in Leibovitz buffer. • 2. All compounds and controls were run in duplicate. • 3. Compound concentration was 10 μM. • 4. All compounds and controls were incubated with both cells and buffer to show turnover is due to hepatic metabolism. • 5. All wells on the incubation plate had 326.7 μL of either cells or buffer added. • 6. Prior to assay, cell and buffer-only incubation plates were preincubated for 10 mins at 37° C. • 7. The assay was initiated by adding compounds, 3.3 μL of 1 mM in 10% DMSO-90% Buffer; final DMSO concentration is 0.1%. • 8. Samples were taken at regular timepoints (0, 5, 10, 20, 40, 60 min) until 60 mins. • 9. Sample volume was 40 μL and added to 160 μL of crash solvent (acetonitrile with internal standard) and stored on ice. • 10. At the end of the assay, the crash plates were centrifuged at 3500 rpm for 20 mins at 4° C. • 11. 80 μL of clear supernatant was removed and mixed with 80 μL of deionised water before being analysed by LC-MS/MS.
(§10) Raw LC-MS/MS data were exported to, and analysed in, Microsoft Excel for determination of intrinsic clearance. The percentage remaining of a compound was monitored using the peak area of the initial concentration as 100%. Intrinsic clearance and half-life values were calculated using a graph of the natural log of percentage remaining versus the time of reaction in minutes.
(§11) 4-Octyl itaconate was included as a comparator compound.

Series [2] is described as follows: Hepatocyte stability assay, human. It is filed as in vitro ADME. The note with it: human, hepatocytes, T½.
From the text: as §8, §9, §10, §11

Series [3] deals with cryo-preserved hepatocytes. Kind of series: Hepatocyte stability assay, mouse. It is filed as in vitro ADME. The following applies: mouse, hepatocytes.
From the text: as §8, §9, §10, §11

Series [4] in a line: Hepatocyte stability assay, mouse. Format: in vitro ADME. The following applies: mouse, hepatocytes, T½.
From the text: as §8, §9, §10, §11

In series [5] the test system is NRF2 (nuclear factor erythroid 2-related factor 2). Kind of series: NRF2 +/-GSH activation assay (DiscoverX PathHunter NRF2 translocation kit, U2OS cells). Format: cell-based. The note with it: Homo sapiens; for Emax: U2OS, normalised to dimethyl fumarate high control; for EC50: U2OS PathHunter cells, 6 hours.
[6] abbreviates: Homo sapiens, THP-1, differentiated THP-1 cells.
[7] abbreviates: +GSH, read-out: NRF2 activation Emax, +GSH.
Where [8] appears, read: −GSH, read-out: NRF2 activation Emax, −GSH.
[9] abbreviates: +GSH, read-out: NRF2 activation EC50, +GSH.
The mark [10] stands for this setting: −GSH, read-out: NRF2 activation EC50, −GSH.

SMILES strings stand for the structures. Like-named read-outs stand apart in the source and are kept apart here.

The term IC50 denotes the point on the concentration scale where inhibition reaches its midpoint. As a reminder, the half-life is the time in which the quantity being followed falls by half. What is called Emax is the size of the effect at its maximum, as opposed to the concentration needed. Usually EC50 stands for the midpoint of the concentration-response curve.

With `C=C(CC(=O)NC(c1ccc(C(F)(F)F)cc1)C1CC1)C(=O)O` (stereo not shown) [Example 10, 4-((cyclopropyl(4-(trifluoromethyl)phenyl)methyl)amino)-2-methylene-4-oxobutanoic acid], the IC50 in the series on IL-1β (setting [6]) was 16.6 µM; in the series on IL-6, > 100 µM. Moreover, the Clint in series [1] and in series [3] was <3 μL min^−1 10^−6 cells each time. Besides, the half-life at 10 μM in series [2] and in series [4] was > 7.67 h throughout.
For `C=C(CC(=O)N[C@@H](C)c1ccc(C(F)(F)F)cn1)C(=O)O` [Example 30, (S)-2-methylene-4-oxo-4-((1-(5-(trifluoromethyl)pyridin-2-yl)ethyl)amino) butanoic acid], the results for the IC50 in the series with IL-1β (setting [6]) and in the series on IL-6 were 9.2 µM and > 100 µM, respectively. The Clint in series [1] and in series [3] was <3 μL min^−1 10^−6 cells in each case. Moreover, the half-life at 10 μM in series [2] and in series [4] was > 7.67 h throughout.
Consider `CC(C)C/C=C(\CC(=O)N[C@@H](C)c1ccc(C(F)(F)F)cc1)C(=O)O` [Example 45, (S,E)-5-methyl-2-(2-oxo-2-((1-(4-(trifluoromethyl)phenyl)ethyl)amino)ethyl)hex-2-enoic acid], for which the IC50 in the series on IL-1β (setting [6]) was 2.1 µM; in the series on IL-6 it was > 31.6 µM. Also, the Clint in series [1] came to 8 μL min^−1 10^−6 cells; in series [3] it was 30 μL min^−1 10^−6 cells. The half-life at 10 μM in series [2] came out at 3.83 h; in series [4], 0.793 h.
With `C=C(CC(=O)NC1CCc2cc(C(F)(F)F)ccc21)C(=O)O` (stereo not shown) [Example 40, 2-methylene-4-oxo-4-((5-(trifluoromethyl)-2,3-dihydro-1H-inden-1-yl)amino) butanoic acid], the IC50 in the series on IL-1β (setting [6]) was 26.9 µM; in the series on IL-6, > 100 µM. Further, the Clint in series [1] and in series [3] was <3 μL min^−1 10^−6 cells each time. The half-life at 10 μM in series [2] and in series [4] was > 7.67 h throughout.
On to `C=C(C(=O)O)C(C)C(=O)NC(C)(C)c1ccc(C(F)(F)F)cc1` (single isomer, unassigned; isomer 1) [Example 52, 3-methyl-2-methylene-4-oxo-4-((2-(4-(trifluoromethyl)phenyl)propan-2-yl)amino)butanoic acid ISOMER 1], for which the IC50 in the series on IL-1β (differentiated THP-1 cells) was found to be 18.7 µM. Further, in series [1], the Clint is recorded as <3 μL min^−1 10^−6 cells. Further, the values for the half-life at 10 μM in series [2] and in series [4] were > 7.67 h and 7.18 h, respectively. For the same compound, in series [3] (10 μM), the T½ was >7.67 h.
Turning to `C=C(CC(=O)NC1CCCCCCC1)C(=O)OC1CCN(S(C)(=O)=O)CC1` [Example 2, 1-(methylsulfonyl)piperidin-4-yl 4-(cyclooctylamino)-2-methylene-4-oxobutanoate], the Emax was determined as 90% in series [5] (setting [7]) and 127% in series [5] (setting [8]). Moreover, the EC50 was determined as 41.9 µM in series [5] (setting [9]) and 24.9 µM in series [5] (setting [10]). Also, the IC50 in the series with IL-1β (setting [6]) stood at 8.5 µM. The figures for the Clint in series [1] and in series [3] were 14 μL min^−1 10^−6 cells and 119 μL min^−1 10^−6 cells, respectively. The “Clint, data from repeated experiments” value is listed as 21ª μL min^−1 10^−6 cells in series [1] and 156ª μL min^−1 10^−6 cells in series [3]. The half-life at 10 μM in series [2] was found to be 2 h; in series [2] (data from repeated experiments), 1.28 h; in series [4], 0.983 h; in series [4] (data from repeated experiments) it was 0.15 h.
For the compound `C=C(CC(=O)N[C@@H](C)c1ccc(C(F)(F)F)cn1)C(=O)OC1CCN(C)CC1` [Example 32, 1-methylpiperidin-4-yl (S)-2-methylene-4-oxo-4-((1-(5-(trifluoromethyl)pyridin-2-yl)ethyl)amino)butanoate], the Emax in series [5] (setting [7]) was determined as 12%; in series [5] (setting [8]), 58%. Moreover, the figures for the EC50 in series [5] (setting [9]) and in series [5] (setting [10]) were > 100 µM and 46.2 µM, respectively. The IC50 in the series with IL-1β (setting [6]) stood at 8.9 µM. Besides, the results for the Clint in series [1] and in series [3] were 12 μL min^−1 10^−6 cells and 87 μL min^−1 10^−6 cells, respectively. In addition, the half-life at 10 μM was 2.05 h in series [2] and 0.333 h in series [4].
In the case of `C=C(CC(=O)N[C@@H](C)c1ccc(C(F)(F)F)cc1)C(=O)OCCNS(C)(=O)=O` [Example 25, 2-(methylsulfonamido)ethyl (S)-2-methylene-4-oxo-4-((1-(4-(trifluoromethyl)phenyl)ethyl)amino)butanoate], the IC50 with IL-1β (setting [6]) was 4.1 µM. For the same compound, the Clint is 21 μL min^−1 10^−6 cells in series [1] and 153 μL min^−1 10^−6 cells in series [3]. Also, the half-life at 10 μM in series [2] was determined as 1.17 h; in series [4] it was 0.183 h.
On the same counts, the results for `CC/C=C(\CC(=O)N[C@@H](C)c1ccc(C(F)(F)F)cc1)C(=O)O` [Example 43, (S,E)-2-(2-oxo-2-((1-(4-(trifluoromethyl)phenyl)ethyl)amino)ethyl)pent-2-enoic acid] are 2.1 µM, <3 μL min^−1 10^−6 cells, 9 μL min^−1 10^−6 cells, > 7.67 h and 2.72 h.
The matching figures for `CC(C)/C=C(\CC(=O)N[C@@H](C)c1ccc(C(F)(F)F)cc1)C(=O)O` [Example 44, (S,E)-4-methyl-2-(2-oxo-2-((1-(4-(trifluoromethyl)phenyl)ethyl)amino)ethyl)pent-2-enoic acid]: 4.2 µM, <3 μL min^−1 10^−6 cells, 6 μL min^−1 10^−6 cells, > 7.67 h and 3.98 h.
Consider `C=C(CC(=O)NCc1ccc(Cl)cc1)C(=O)OC1CCN(S(C)(=O)=O)CC1` [Example 1, 1-(methylsulfonyl)piperidin-4-yl 4-((4-chlorobenzyl)amino)-2-methylene-4-oxobutanoate], for which the Emax in series [5] (setting [7]) came to 19%; in series [5] (setting [8]), 63%. In addition, the values for the EC50 in series [5] (setting [9]) and in series [5] (setting [10]) were > 100 µM and 22.3 µM, respectively. Moreover, in the series with IL-1β (setting [6]), the IC50 amounted to 12.3 µM. Besides, the Clint in series [1] came out at 12 μL min^−1 10^−6 cells; in series [3] it was 31 μL min^−1 10^−6 cells. The entries for the “Clint, data from repeated experiments” value in series [1] and in series [3] were 31ª μL min^−1 10^−6 cells and 133 μL min^−1 10^−6 cells, respectively. The half-life at 10 μM amounted to 1.95 h in series [2], 0.783 h in series [2] (data from repeated experiments), 1.63 h in series [4] and 0.183 h in series [4] (data from repeated experiments).

Values taken from patent publication US20240245691A1 (Sitryx Therapeutics Limited, priority 2021, published 2024).
